From US4987126A, “3'-deamino-4'-deoxy-4'-amino anthracyclines” (Farmitalia Carlo Erba S.r.l., priority 1988, dated 1991)

Key:
murine Gross leukemia = test: Effect against murine Gross leukemia; format: in vivo, murine (C3H/He mice); conditions: for T/C % (median survival time of treated mice/median survival time of control × 100): Gross leukemia, C3H/He mice, 2 × 10^6 cells i.v., single i.v. dose day 1 at optimal dose (mg/Kg): DNR 15, DXR 13-16.9, Ib 65, Ia 12.5, IIa 4, Id 6.7, IIc 1; for Toxic death: Gross leukemia-bearing C3H/He mice, autoptic findings, at optimal dose (mg/Kg): DNR 15, DXR 13-16.9, Ib 65, Ia 12.5, IIa 4, Id 6.7, IIc 1; for activity on increase of the survival time of mice, Gross leukemia (in words): mouse, in vivo; for potency on Gross leukemia (in words): among all compounds tested
Protocol: (§1) The antileukemic activity of Ia and IIa, in comparison with DXR (doxorubicin) and DNR (daunorubicin), was tested against murine P388 and Gross Leukemias.
(§2) The compounds were tested by dissolving them, as hydrochlorides, in water.
^a Experiments were performed in C3H/He mice, inoculated i.v. with 2
(§3) ^b Single i.v. dose on day 1 after tumor inoculum.
(§4) ^c Median survival time of treated mice/median survival time of
^3 Evaluated on the basis of autoptic findings.

[1] = test system: Murine Mammary ca. (MTV/DXR); test: Effect against Murine Mammary ca. (MTV/DXR); format: in vivo; conditions: C3H/He mice, i.v. once a week for three weeks, optimal dose (mg/Kg): DXR 6, IIa 5; for tumor inhibition: 1 week after last treatment
Protocol: as §2
^a experiment was carried out in C3H/He mice, transplanted s.c. with
(§5) ^b treatment i.v. was carried out once a week for three weeks,
(§6) starting when the tumor was palpable
(§7) ^c percentage of tumor growth inhibition in respect to control was
(§8) calculated 1 week after the last treatment

[2] = test system: Human Colon ca. (LoVo/DXR); test: Effect against Human Colon ca. (LoVo/DXR); format: in vivo, human (tumor transplanted in Swissnude mice); conditions: i.v. once a week for three weeks, 1 week after last treatment; optimal dose (mg/Kg): DXR 6, Ia 7.5, IIa 4
Protocol: as §2
(§9) ^a experiment was performed in Swissnude mice, transplanted s.c. with
as §5, §6, §7, §8

[3] = test system: human lung adenocarcinoma (A549); test: Effect against human lung adenocarcinoma (A549); format: in vivo, human (tumor transplanted in Swissnude mice); conditions: i.v. once a week for three weeks, 1 week after last treatment; optimal dose (mg/Kg): DXR 6, Ia 9, IIa 5
Protocol: as §2, §9, §5, §6, §7, §8

Lewis Lung ca. = test: Effect against Lewis Lung ca.; format: in vivo, mouse (C57 B1/6 mice); conditions: for tumor inhibition / T/C (median survival time of treated mice/median survival time of control × 100): C57 B1/6 mice, 10^5 cells i.v., i.v. once a week for three weeks from day 1, optimal dose (mg/Kg): DXR 6-7.5, DNR 8, Ia 7.5, IIa 4; for tumor inhibition: 1 week after last treatment; for tumor growth inhibition, Lewis lung ca. (in words) / survival time of mice, Lewis lung ca. (in words): model sensitive to DXR; for survival time of mice, Lewis lung ca. (in words): versus DXR
Protocol: as §2
^a experiment was performed in C57 B1/6 mice, inoculated i.v. with
as §5
starting on day 1 after tumor transplant
as §7, §8
^d median survival time of treated mice/median survival time of […]

P388 ascitic leukemia = test: Effect against P388 ascitic leukemia; format: in vivo, murine (CDF1 mice); conditions: for T/C % (median survival time of treated mice/median survival time of control × 100): P388, CDF1 mice, 10^6 cells i.v., single i.v. dose day 1 at optimal dose (mg/Kg): DNR 22.5, DXR 16.9, Ia 19.5, IIa 4; for Toxic death: P388-bearing CDF1 mice, autoptic findings, at optimal dose (mg/Kg): DNR 22.5, DXR 16.9, Ia 19.5, IIa 4
Protocol: as §1, §2
^a Experiments were performed in CDF1 mice, inoculated i.v. with
as §3, §4
^d Evaluated on the basis of autoptic findings.

[4] = test system: Human Colon adenocarcinoma (LoVo); test: Effect against Human Colon adenocarcinoma (LoVo); format: in vivo, human (tumor transplanted in Swissnude mice); conditions: for tumor inhibition: i.v. once a week for three weeks, 1 week after last treatment, optimal dose (mg/Kg): DNR 8 tox, DXR 6, Ia 7.5, IIa 4-5; for activity on LoVo tumor (in words): in vivo
Protocol: as §2
^1 experiment was performed in Swissnude mice, transplanted s.c. with
as §5, §6, §7, §8

solid tumors = test: evaluation against different human and solid tumors (Tables 4-8, overall); format: in vivo, human and murine; conditions: IIa versus Ia
Protocol: as §2

SMILES	T/C % (median survival time of treated mice/median survival time of control × 100) (murine Gross leukemia)	Toxic death (murine Gross leukemia)	tumor inhibition [1]	T/C [1]	tumor inhibition [2]	tumor inhibition [3]	tumor inhibition (Lewis Lung ca.)	T/C (median survival time of treated mice/median survival time of control × 100) (Lewis Lung ca.)	tumor growth inhibition, Lewis lung ca. (in words) (Lewis Lung ca.)	activity on increase of the survival time of mice, Gross leukemia (in words) (murine Gross leukemia)	T/C % (median survival time of treated mice/median survival time of control × 100) (P388 ascitic leukemia)	Toxic death (P388 ascitic leukemia)	tumor inhibition [4]	toxicity mark at the dose ([4]; 8 mg/Kg i.v. once a week for three weeks, Swissnude mice)	potency on Gross leukemia (in words) (murine Gross leukemia)	potency and activity against all solid tumors tested (in words) (solid tumors)	survival time of mice, Lewis lung ca. (in words) (Lewis Lung ca.)	activity on LoVo tumor (in words) [4]
COc1cccc2c1C(=O)c1c(O)c3c(c(O)c1C2=O)C[C@@](O)(C(=O)CO)C[C@@H]3O[C@H]1CC[C@H](N)[C@H](C)O1 [Id, 3'-deamino-4'-deoxy-4'-aminodoxorubicin]	200%	0/10																
COc1cccc2c1C(=O)c1c(O)c3c(c(O)c1C2=O)C[C@@](O)(C(=O)CO)C[C@@H]3O[C@H]1C[C@H](N)[C@H](O)[C@H](C)O1 [DXR, doxorubicin, reference compound]	200-250%	0/10	52%	84%	30%	44%	85-95%	148-169%	sensitive to DXR	active	225%	0/10	62%					
COc1cccc2c1C(=O)c1c(O)c3c(c(O)c1C2=O)C[C@@](O)(C(C)=O)C[C@@H]3O[C@H]1C[C@H](N)[C@H](O)[C@H](C)O1 [DNR, daunorubicin, reference compound]	200%	0/10					47%	135%		active	222%	0/10	54%	tox				
C[C@@H]1O[C@@H](O[C@H]2C[C@](O)(C(=O)CO)Cc3c(O)c4c(c(O)c32)C(=O)c2ccccc2C4=O)CC[C@H]1N [IIc, 4-demethoxy-3'-deamino-4'-deoxy-4'-epi-aminodoxorubicin]	217%	0/10													most potent			
CC(=O)[C@]1(O)Cc2c(O)c3c(c(O)c2[C@@H](O[C@H]2CC[C@@H](N)[C@H](C)O2)C1)C(=O)c1ccccc1C3=O [Compound IIa, 4-demethoxy-3'-deamino-4'-deoxy-4'-epi-aminodaunorubicin]	160%	0/10	44%	146%	41%	49%	84%	122%	active, as DXR		225%	0/10	54-56%		most potent	more potent and active than Ia	less active	same activity than LoVo/DXR
COc1cccc2c1C(=O)c1c(O)c3c(c(O)c1C2=O)C[C@@](O)(C(C)=O)C[C@@H]3O[C@H]1CC[C@H](N)[C@H](C)O1 [Ib, 3'-deamino-4'-deoxy-4'-aminodaunorubicin]	240%	0/10																
CC(=O)[C@]1(O)Cc2c(O)c3c(c(O)c2[C@@H](O[C@H]2CC[C@H](N)[C@H](C)O2)C1)C(=O)c1ccccc1C3=O [Ia, 4-demethoxy-3'-deamino-4'-deoxy-4'-aminodaunorubicin]	240%	0/10			13%	13%	7%	104%	inactive		200%	0/10	11%				inactive	completly inactive
